Data on five compounds can be found in US4438031A, “N-(Alkylsulfonyl)-L-proline amide and N-(alkylsulfonyl)-2-carboxylic acid amide-indoline derivatives” (American Home Products Corporation, priority 1982, dated 1984).

In assay [1] the target is T1, angiotensin converting enzyme (Oryctolagus cuniculus, UniProt P12822).
T1 construct: The in vitro assay utilizes rabbit lung extract; from tissue; host or cells: rabbit lung extract
T1 sequence (P12822 34-1310): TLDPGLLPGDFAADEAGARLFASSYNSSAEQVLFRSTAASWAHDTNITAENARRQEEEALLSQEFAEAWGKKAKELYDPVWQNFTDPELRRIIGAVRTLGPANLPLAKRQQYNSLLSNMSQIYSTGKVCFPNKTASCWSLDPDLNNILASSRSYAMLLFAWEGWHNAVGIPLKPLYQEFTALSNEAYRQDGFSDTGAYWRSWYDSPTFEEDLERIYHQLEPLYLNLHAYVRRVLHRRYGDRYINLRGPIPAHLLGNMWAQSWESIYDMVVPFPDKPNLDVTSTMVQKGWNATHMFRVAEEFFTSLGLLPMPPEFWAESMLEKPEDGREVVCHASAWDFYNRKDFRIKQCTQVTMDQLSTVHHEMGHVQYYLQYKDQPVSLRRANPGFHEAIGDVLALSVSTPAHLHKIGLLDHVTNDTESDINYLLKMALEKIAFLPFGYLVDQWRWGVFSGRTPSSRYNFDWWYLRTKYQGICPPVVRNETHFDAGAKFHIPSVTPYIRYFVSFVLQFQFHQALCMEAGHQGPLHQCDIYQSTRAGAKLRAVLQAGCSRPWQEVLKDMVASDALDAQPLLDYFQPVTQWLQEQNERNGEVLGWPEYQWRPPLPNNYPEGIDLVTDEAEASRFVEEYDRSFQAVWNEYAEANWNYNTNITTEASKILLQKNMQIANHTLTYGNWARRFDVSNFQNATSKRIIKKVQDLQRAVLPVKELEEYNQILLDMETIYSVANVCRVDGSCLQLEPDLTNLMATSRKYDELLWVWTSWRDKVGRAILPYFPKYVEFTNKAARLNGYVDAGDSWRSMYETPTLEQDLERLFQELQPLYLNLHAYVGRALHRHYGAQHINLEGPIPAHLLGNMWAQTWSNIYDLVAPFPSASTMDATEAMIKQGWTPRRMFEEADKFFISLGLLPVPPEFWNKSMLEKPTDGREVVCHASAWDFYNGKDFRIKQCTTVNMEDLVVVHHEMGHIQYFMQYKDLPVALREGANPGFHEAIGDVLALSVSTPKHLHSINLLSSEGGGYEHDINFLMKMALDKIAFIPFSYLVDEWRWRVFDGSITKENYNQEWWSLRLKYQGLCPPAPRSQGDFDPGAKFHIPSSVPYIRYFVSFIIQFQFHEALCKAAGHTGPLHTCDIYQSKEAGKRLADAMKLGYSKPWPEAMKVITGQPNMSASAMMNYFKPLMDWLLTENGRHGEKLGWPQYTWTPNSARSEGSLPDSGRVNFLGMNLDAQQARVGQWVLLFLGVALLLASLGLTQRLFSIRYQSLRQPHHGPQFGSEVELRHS
The assay can be described thus: in vitro angiotensin converting enzyme (ACE) inhibition, rabbit lung extract, substrate hippuryl-L-histidyl-L-leucine (Cushman et al.). In kind it is biochemical. On the procedure: The angiotensin converting enzyme (ACE) inhibitory property of the compounds is measured in vitro and in vivo. The in vitro assay utilizes rabbit lung extract and a specific tripeptide substrate, hippuryl-L-histidyl-L-leucine being preferred, and follows the method of Cushman et al., Biochem. Pharmacol, 20, 1637-1648 (1971).

The conditions of assay [2]: oral administration; cited from earlier work.
The conditions of assay [3]: humans with certain forms of hypertension; cited from earlier work.

Where a name gives a salt, the structure may show the parent alone.

On to `C[C@H](CSC(=O)c1ccccc1)C(=O)N1CCC[C@H]1C(=O)NS(C)(=O)=O` [Example 3, Benzenecarbothioic Acid S-[(2S)-2-Methyl-3-[(2S)-2-[(Methylsulfonylamino)Carbonyl]-1-Pyrrolidinyl]-3-Oxopropyl]Ester], for which, in assay [1] (concentration 50 ng/ml), the inhibition at 0.05 µg/mL was in the range of 14 to 21%. In addition, the figures for the “inhibition of angiotensin converting enzyme” value in assay [1] (concentration 100 ng/ml) and in assay [1] (concentration 1000 ng/ml) were 31-37% and 76-80%, respectively.
Turning to `C[C@H](CS)C(=O)N1CCCC1C(=O)O` (stereo in doubt) [D-3-mercapto-2-methylpropanoyl-L-proline], the “oral activity as an anti-hypertensive agent” value in assay [2] was “effective when administered orally”.
Take “Pyr-Trp-Pro-Arg-Pro-Gln-Ile-Pro-Pro (WPRPQIPP; N-terminal pyroglutamyl; printed: Trp-Pro-Arg-Pro-Gln-Ile-Pro-Pro) [BPP9a]”: in assay [2], the “oral activity as an anti-hypertensive agent” value is recorded as “not orally active”. In addition, the “anti-hypertensive effect in clinical studies” value in assay [3] is given as “effective anti-hypertensive agent”.
Take `C[C@H](CSC(=O)c1ccccc1)C(=O)N1CCC[C@H]1C(=O)NS(C)(=O)=O` [Example 1, Benzenecarbothioic Acid S-[(2S)-2-Methyl-3-[(2S)-2-[(Methylsulfonylamino)Carbonyl]-1-Pyrrolidinyl]-3-Oxopropyl]Ester, Dicyclohexylamine Salt]: the inhibition at 0.1 µg/mL in assay [1] (concentration 100 ng/ml) lay in the range of 35 to 38%. Besides, the “inhibition of angiotensin converting enzyme” value in assay [1] (concentration 100 ng/ml, listed as Example 2) is reported as 35-38%. Moreover, the inhibition at 1 µg/mL in assay [1] (concentration 1000 ng/ml) came to 80%.
For `C[C@H](CS)C(=O)N1CCC[C@H]1C(=O)NS(C)(=O)=O` [Example 4, (S)-1-[(2S)-3-Mercapto-2-Methyl-1-Oxopropyl]-N-(Methylsulfonyl)-2-Pyrrolidinecarboxamide], in assay [1] (concentration 50 ng/ml), the inhibition at 0.05 µg/mL came to 32% and the “inhibition of angiotensin converting enzyme” value is 50-57%. Also, the inhibition at 1 µg/mL in assay [1] (concentration 1000 ng/ml) was 89 to 92%.

The inhibition is the change of the read-out against control, counted positive when it falls.
